Bounds are passed on as bounds.

The values that follow come from patent US7067494B2, “Antimitotic eleuthesides” (The University of British Columbia, priority 2001, dated 2006).

The subject of this experiment is cells which regularly divide in culture (e.g. cancer cells). The experiment in a line: cell based antimitotic (mitotic arrest) assay using antibodies specific for mitotic cells. The settings on record: for IC50: cell based mitotic assay. From the text:
Methods suitable for assaying antimitotic activity of compounds of this invention or compounds used as precursors, may be based on the use of antibodies specific for mitotic cells, such as those described in the international patent application published Apr. 1, 1999 under WO 99/15157 or the assay described in WO 01/38339. Such an assay will typically employ cells which regularly divide in culture (e.g. cancer cells). A known antimitotic compound such as nocodazole may be used as a control. In the assay, determination of the cells which proceed to mitosis is carried out using any of the known immunological methods by employing antibodies which have specificity for mitotic cells. […] Other examples are the monoclonal antibodies recognizing phospho-epitopes in the paired helical filament proteins (PHF) found in brain tissue of patients suffering from Alzheiner's disease as described in: PCT International Application published Jul. 4, 1996 under No. WO 96/20218; and, Vincent et al. (1996) “The Journal of Cell Biology”, 132:413–425. TG-3 antibody described in the latter two references may be obtained from Albert Einstein College of Medicine of Yeshiva University, Bronx, N.Y. This antibody is highly specific for mitotic cells and functions in ELISA.
Immunological methods useful for determination of mitotic cells in an assay include any method for determining antibody-antigen binding, including: immunocytochemistry (e.g. immunofluorescence), flow cytometry, immunoblotting, and ELISA, including those described in Vincent, I. et al. [supra]. High throughput testing of samples may be readily achieved by use of the ELISA or the ELICA assays described in WO 01/38339.

As to 2′3′-dihdro-eleutherobin [Compound 10], the IC50 was 20000 nM.
The compound “5,6,11β,12-tetrahydro eleutherobin [Compound 9]” displayed a half-inhibitory concentration (IC50) of 200 nM.
As to `CCO[C@]12C=C[C@](C)(O1)[C@@H](OC(=O)/C=C/c1cn(C)cn1)C[C@H]1C(CO)=CC[C@H](C(C)C)[C@H]1/C=C\2COC1OCC(O)C(O)C1OC(C)=O` (stereo partly drawn) [Compound 7, 17-hydroxyeleutheside], the midpoint of inhibition, the IC50, lay at 20 nM.
In the case of `CO[C@]12CC[C@](C)(O1)[C@@H](OC(=O)CCc1cn(C)cn1)C[C@@H]1[C@H](/C=C\2COC2OCC(O)C(O)C2OC(C)=O)[C@@H](C(C)C)CC[C@@H]1C` (stereo partly drawn) [Compound 8, hexahydroeleutherobin], the IC50 is above 10000 nM. Moreover, the “antimitotic activity relative to eleutherobin (fold less active)” value (compared with eleutherobin) was “more than five thousand fold less active than eleutherobin”.
The compound `CO[C@]12C=C[C@](C)(O1)[C@@H](OC(=O)/C=C/c1cn(C)cn1)C[C@H]1C(C)=CC[C@H](C(C)C)[C@H]1/C=C\2COC1OCC(O)C(O)C1OC(C)=O` (stereo partly drawn) [eleutherobin, reference compound] registered a concentration for half-maximal inhibition (IC50) of 20 nM.

By IC50 is commonly meant the concentration at which inhibition is half-maximal.
